Laboratory results: PMC4304654 (Bioorganic & medicinal chemistry, 2012)
Converted amounts (≈) assume the structure as drawn.

assay: Aqueous solubility in the sodium acetate buffer of the fibrillization assay; assay type: physicochemical

| SMILES | solubility [µM] |
| --- | --- |
| CCOC(=O)c1nn(-c2ccc(C(F)(F)F)cc2)c(=O)c2c(N)scc12 [Compound 30, Ethyl 5-amino-4-oxo-3-(4-(trifluoromethyl)phenyl)-3,4-dihydrothieno[3,4-d]pyridazine-1-carboxylate] | 32 (≈ 12.3 µg/mL) |
| CCOC(=O)c1nn(-c2ccccc2Cl)c(=O)c2c(N)scc12 [Compound 27, Ethyl 5-amino-3-(2-chlorophenyl)-4-oxo-3,4-dihydrothieno-[3,4-d]pyridazine-1-carboxylate] | 12.8 (≈ 4.48 µg/mL) |
| Nc1scc2c(C(=O)O)nn(-c3cccc(Cl)c3)c(=O)c12 [Compound 36, 5-Amino-3-(3-chlorophenyl)-4-oxo-3,4-dihydrothieno[3,4-d]pyridazine-1-carboxylic acid] | 32 (≈ 10.3 µg/mL) |
| CCOC(=O)c1nn(-c2ccc(F)cc2)c(=O)c2c(N)scc12 [Compound 26, Ethyl 5-amino-3-(4-fluorophenyl)-4-oxo-3,4-dihydrothieno[3,4-d]pyridazine-1-carboxylate] | > 200 |
| Cc1nn(C2CCCCC2)c(=O)c2c(N)scc12 [Compound 59, 7-Amino-2-cyclohexyl-4-methylthieno[3,4-d]pyridazin-1(2H)-one] | > 200 |
| CCOC(=O)c1nn(-c2ccc(C(C)C)cc2)c(=O)c2c(N)scc12 [Compound 33, Ethyl 5-amino-3-(4-isopropylphenyl)-4-oxo-3,4-dihydrothieno[3,4-d]pyridazine-1-carboxylate] | 32 (≈ 11.4 µg/mL) |
| CCOC(=O)c1nn(-c2ccc(Cl)cc2)c(=O)c2c(NC)scc12 [Compound 66, Ethyl 3-(4-chlorophenyl)-5-(methylamino)-4-oxo-3,4-dihydrothieno[3,4-d]pyridazine-1-carboxylate] | 80 (≈ 29.1 µg/mL) |
| Cc1nn(C(C)C)c(=O)c2c(N)scc12 [Compound 57, 7-Amino-2-isopropyl-4-methylthieno[3,4-d]pyridazin-1(2H)-one] | 80 (≈ 17.9 µg/mL) |
| CC(C)c1ccc(-n2nc(C(=O)NC3CC3)c3csc(N)c3c2=O)cc1 [Compound 50, 5-Amino-N-cyclopropyl-3-(4-isopropylphenyl)-4-oxo-3,4-dihydrothieno[3,4-d]pyridazine-1-carboxamide] | 80 (≈ 29.5 µg/mL) |
| Nc1scc2c(C(=O)O)nn(-c3ccc(F)cc3)c(=O)c12 [Compound 34, 5-Amino-3-(4-fluorophenyl)-4-oxo-3,4-dihydrothieno[3,4-d]pyridazine-1-carboxylic acid] | > 200 |
| CCOC(=O)c1nn(-c2ccc(OC(F)(F)F)cc2)c(=O)c2c(N)scc12 [Compound 31, Ethyl 5-amino-4-oxo-3-(4-(trifluoromethoxy)phenyl)-3,4-dihydrothieno[3,4-d]pyridazine-1-carboxylate] | 12.8 (≈ 5.11 µg/mL) |
| Nc1scc2c(C(=O)O)nn(-c3ccc(OC(F)(F)F)cc3)c(=O)c12 [Compound 39, 5-Amino-4-oxo-3-(4-(trifluoromethoxy)phenyl)-3,4-dihydrothieno[3,4-d]pyridazine-1-carboxylic acid] | > 200 |
| Nc1scc2c(-c3ccccc3)nn(CC(F)(F)F)c(=O)c12 [Compound 64, 7-Amino-4-phenyl-2-(2,2,2-trifluoroethyl)thieno[3,4-d]pyridazin-1(2H)-one] | > 200 |
| CC(C)n1nc(-c2ccccc2)c2csc(N)c2c1=O [Compound 65, 7-Amino-2-isopropyl-4-phenylthieno[3,4-d]pyridazin-1(2H)-one] | > 200 |
| CCOC(=O)c1c(C(=O)c2ccccc2)csc1N [Compound 54, Ethyl 2-amino-4-benzoylthiophene-3-carboxylate] | > 200 |
| CCOC(=O)c1nn(-c2ccc(Cl)cc2)c(=O)c2c1C(O)NC2=O (centres unmarked) [Compound 69, Ethyl 2-(4-chlorophenyl)-5-hydroxy-1,7-dioxo-2,5,6,7-tetrahydro-1H-pyrrolo[3,4-d]pyridazine-4-carboxylate] | > 200 |
| CC(C)NC(=O)c1nn(-c2cccc(Cl)c2)c(=O)c2c(N)scc12 [Compound 46, 5-Amino-3-(3-chlorophenyl)-N-isopropyl-4-oxo-3,4-dihydrothieno[3,4-d]pyridazine-1-carboxamide] | 32 (≈ 11.6 µg/mL) |
